Source: patent CN117567270A, “一种醇胺-壬二酸超分子离子盐及其制备和应用” (Jiangnan University, priority 2023, dated 2024)

Tests used:
[1] = background statement; cited from earlier work
[2] = tested on: human skin stratum corneum [人体皮肤角质层]; test: Moisturising performance test (skin water content by capacitance method); type: in vivo; conditions: toner with azelaic acid mass fraction 0.2%; for water content of human skin: 1 h after application; for moisturising ability (compared with control group): long time; for water loss of skin (compared with control group): longer time; for water replenishing ability (compared with control group): short time
[3] = tested on: Escherichia coli, Pseudomonas aeruginosa and Staphylococcus aureus [大肠埃希氏菌、铜绿假单胞菌和金黄色葡萄球菌]; test: Antibacterial challenge test, overall result; type: cell-based; conditions: for antibacterial challenge test passed: criterion: log decline at 14 d not less than 2.0 and no rise 14~28 d
[4] = tested on: Staphylococcus aureus [金黄色葡萄球菌]; test: Antibacterial challenge test (single inoculation, 28 d), Staphylococcus aureus; type: cell-based; conditions: 14~28 d
[5] = tested on: Escherichia coli [大肠埃希氏菌]; test: Antibacterial challenge test (single inoculation, 28 d), Escherichia coli; type: cell-based; conditions: for increase of bacterial count: 14~28 d; for sterilising effect (compared with control group): 7 d, control group: azelaic acid neutralised to pH 7.0
[6] = tested on: Pseudomonas aeruginosa [铜绿假单胞菌]; test: Antibacterial challenge test (single inoculation, 28 d), Pseudomonas aeruginosa; type: cell-based; conditions: for increase of bacterial count: 14~28 d; for sterilising effect (compared with control group): 7 d, control group: azelaic acid neutralised to pH 7.0
[7] = High/low temperature cycling of the salt and its water dilutions; type: physicochemical; conditions: 15 cycles -5~40℃; undiluted and diluted 1, 5, 10, 20, 50 times with water
[8] = Storage stability of the salt and its water dilutions; type: physicochemical; conditions: 3 months, undiluted and diluted 1, 5, 10, 20, 50 times with water

Structure (SMILES) | solubility in water [1] | water content of human skin [2] | antibacterial challenge test passed [3] | increase of bacterial count [4] | increase of bacterial count [5] | increase of bacterial count [6] | moisturising ability (compared with control group) [2] | water loss of skin (compared with control group) [2] | water replenishing ability (compared with control group) [2] | short-term antibacterial effect compared with azelaic acid [3] | sterilising effect (compared with control group) [5] | sterilising effect (compared with control group) [6] | precipitation of insolubles and colour change [7] | precipitation of insolubles and colour change ([8]; 45℃ oven) | precipitation of insolubles and colour change ([8]; room temperature, natural light)
O=C(O)CCCCCCCC(=O)O [壬二酸, reference compound] | 很低 | 明显上升 | 通过抗菌挑战测试 | 不增加 | 不增加 | 不增加 | – | – | – | – | – | – | – | – | –
O=C(O)CCCCCCCC(=O)O.OCCN(CCO)CCO.OCCN(CCO)CCO [实施例1, 三乙醇胺-壬二酸超分子离子盐] | – | 明显上升 | – | 不增加 | 不增加 | 不增加 | 更加优异 | 较为缓慢 | 更加优异 | 优于壬二酸 | 更加优异 | 更加优异 | – | – | –
NCC(O)CO.NCC(O)CO.O=C(O)CCCCCCCC(=O)O [实施例2, 氨基丙二醇-壬二酸超分子离子盐] | – | 明显上升 | 通过抗菌挑战测试 | 不增加 | 不增加 | 不增加 | 更加优异 | 较为缓慢 | 更加优异 | 优于壬二酸 | 更加优异 | 更加优异 | 无不溶物析出且无颜色变化 | 无不溶物析出且无颜色变化 | 无不溶物析出且无颜色变化
CC(C)(N)CO.O=C(O)CCCCCCCC(=O)O [实施例3, 氨甲基丙醇-壬二酸超分子离子盐] | – | 明显上升 | 通过抗菌挑战测试 | 不增加 | 不增加 | 不增加 | 更加优异 | 较为缓慢 | 更加优异 | 优于壬二酸 | 更加优异 | 更加优异 | – | – | –
